Experimental data from patent US11833159B2, “Non-hormonal steroid modulators of NF-kB for treatment of disease” (ReveraGen BioPharma, Inc., priority 2008, dated 2023).

How the values were obtained:
mdx mice [1] = experiment: mdx mouse model: histological evaluation (H&E) of gastrocnemius muscle; format: in vivo; details: 3 months per oral in feed, Examples 20 and 40 mg/kg/day; for Inflammation of skeletal muscle (H&E histology): in comparison to untreated and prednisolone treated mdx mice; for Degeneration of skeletal muscle (H&E histology) / Regeneration / regenerating muscle fibers (H&E histology): prednisolone 5 mg/kg/day
Procedure: (§1) Separate groups (n=12-14) of mdx mice were treated with prednisolone (5 mg/kg/day; per oral in feed), Example 1 (20 and 40 mg/kg/day; per oral in feed) and Example 2 (20 and 40 mg/kg/day; per oral in feed) for 3 months. All mice underwent 30 min biweekly treadmill exercise during the treatment duration to unmask the mild disease phenotype of mdx mouse model.
Hematoxylin and Eosin staining of gastrocnemius muscle of untreated mdx mice show significant degeneration and inflammation.

[2] = In vivo mdx mouse model of dystrophy: body weight and muscle mass; details: 5 mg/kg/day per oral in feed, at 33.8 weeks age, P<0.05
Procedure: as §1

mdx mice [3] = experiment: mdx mouse model: in vitro force contractions of EDL muscle; format: in vivo; details: 5 mg/kg/day per oral in feed
Procedure: as §1
The distal tendon of the extensor digitorum longus (EDL) muscle was tied securely to the lever arm of a servomotor/force transducer (model 305B, Aurora Scientific, Richmond Hill, ON, Canada) and the proximal tendon to a tissue clamp. Muscles were stimulated between two platinum electrodes. […] The muscle length was then measured with calipers and after removal of the muscle from the bath the mass of the muscle was determined. For each muscle, the optimum fiber length (Lf) was calculated by multiplying Lo by a previously determined Lf/Lo ratio of 0.45. Total muscle fiber cross-sectional area was determined by dividing the wet mass by the product of Lf and the density of mammalian skeletal muscle (1.06 mg/mm^3). Maximum isometric specific force (sPo) was determined by dividing Po by the total muscle fiber cross-sectional area.

## C[C@]12CCC(=O)C=C1CCC1C2=CC[C@@]2(C)C1CC[C@]2(O)C(=O)CO (stereo partly drawn) [Example 1, (10S,13S,17R)-17-hydroxy-17-(2-hydroxyacetyl)-10,13-dimethyl-6,7,8,10,12,13,14,15,16,17-decahydro-1H-cyclopenta[a]phenanthren-3(2H)-one]
Mdx mice [1]
  Inflammation of skeletal muscle (H&E histology): significant decrease
  Degeneration of skeletal muscle (H&E histology): significant decrease
  Regeneration / regenerating muscle fibers (H&E histology): increase in regenerating muscle fibers

## C[C@]12C=CC(=O)C=C1CCC1C2=CC[C@@]2(C)C1CC[C@]2(O)C(=O)CO (stereo partly drawn) [Example 2, (10S,13S,17R)-17-hydroxy-17-(2-hydroxyacetyl)-10,13-dimethyl-6,7,8,10,12,13,14,15,16,17-decahydro-3H-cyclopenta[a]phenanthren-3-one]
Mdx mice [1]
  Inflammation of skeletal muscle (H&E histology): significant decrease
  Degeneration of skeletal muscle (H&E histology): significant decrease
  Regeneration / regenerating muscle fibers (H&E histology): increase in regenerating muscle fibers

## C[C@]12C=CC(=O)C=C1CC[C@@H]1[C@@H]2[C@@H](O)C[C@@]2(C)[C@H]1CC[C@]2(O)C(=O)CO [prednisolone, reference compound]
[2]
  Body weight versus untreated mice: significantly lower body weight
Mdx mice [3]
  Specific force of EDL muscle, difference to untreated group: no statistically significant (P<0.05) difference
Mdx mice [1]
  Degeneration of skeletal muscle (H&E histology): appeared to increase degeneration
  Regeneration / regenerating muscle fibers (H&E histology): decrease in regeneration
